Calls of active or inactive are those of the source. The calls are words filed in the database; no cut-off is given here.
What was measured:
[1] = biological target: Cyclin-dependent kinase-like 3 (Homo sapiens) (UniProt Q8IVW4); test: activity of CDKL3(h) at 1.0 µM in the Eurofins Kinase panel; settings: Compound concentration 1.0 uM
[2] = biological target: Leukocyte tyrosine kinase receptor (Homo sapiens) (UniProt P29376); test: activity of LTK(h) at 1.0 µM in the Eurofins Kinase panel; settings: Compound concentration 1.0 uM
[3] = biological target: G protein-coupled receptor kinase 3 (Homo sapiens) (UniProt P35626); test: activity of GRK3(h) at 1.0 µM in the Eurofins Kinase panel; settings: Compound concentration 1.0 uM
[4] = biological target: Cytoplasmic tyrosine-protein kinase BMX (Homo sapiens) (UniProt P51813); test: activity of Bmx(h) at 1.0 µM in the Eurofins Kinase panel; settings: Compound concentration 1.0 uM
[5] = biological target: Phosphatidylinositol 4-phosphate 5-kinase type-1 alpha (Homo sapiens) (UniProt Q99755); test: activity of PIP5K1alpha(h) at 1.0 µM in the Eurofins Kinase panel; settings: Compound concentration 1.0 uM
[6] = biological target: Cyclin-dependent kinase-like 4 (Homo sapiens) (UniProt Q5MAI5); test: activity of CDKL4(h) at 1.0 µM in the Eurofins Kinase panel; settings: Compound concentration 1.0 uM
[7] = biological target: Inhibitor of nuclear factor kappa-B kinase subunit alpha (Homo sapiens) (UniProt O15111); test: activity of IKKalpha(h) at 1.0 µM in the Eurofins Kinase panel; settings: Compound concentration 1.0 uM
[8] = biological target: Cyclin-dependent kinase 5/CDK5 activator 1 (Homo sapiens) (UniProt Q00535+Q15078); test: activity of CDK5/p25(h) at 1.0 µM in the Eurofins Kinase panel; format: protein-complex assay; settings: Compound concentration 1.0 uM
[9] = biological target: Serine/threonine-protein kinase 38-like (Homo sapiens) (UniProt Q9Y2H1); test: activity of NDR2(h) at 1.0 µM in the Eurofins Kinase panel; settings: Compound concentration 1.0 uM
[10] = biological target: Serine/threonine-protein kinase DCLK3 (Homo sapiens) (UniProt Q9C098); test: activity of DCAMKL3(h) at 1.0 µM in the Eurofins Kinase panel; settings: Compound concentration 1.0 uM
[11] = biological target: Tyrosine-protein kinase JAK2 (Homo sapiens) (UniProt O60674); test: activity of JAK2(h) at 1.0 µM in the Eurofins Kinase panel; settings: Compound concentration 1.0 uM
[12] = biological target: NUAK family SNF1-like kinase 2 (Homo sapiens) (UniProt Q9H093); test: activity of NUAK2(h) at 1.0 µM in the Eurofins Kinase panel; settings: Compound concentration 1.0 uM
[13] = biological target: Mitogen-activated protein kinase kinase kinase 20 (Homo sapiens) (UniProt Q9NYL2); test: activity of ZAK(h) at 1.0 µM in the Eurofins Kinase panel; settings: Compound concentration 1.0 uM
[14] = biological target: TGF-beta receptor type-1 (Homo sapiens) (UniProt P36897); test: activity of TGFBR1(h) at 1.0 µM in the Eurofins Kinase panel; settings: Compound concentration 1.0 uM
[15] = biological target: Leucine-rich repeat serine/threonine-protein kinase 2 (Homo sapiens) (UniProt Q5S007); test: activity of LRRK2(h) at 1.0 µM in the Eurofins Kinase panel; settings: Compound concentration 1.0 uM
[16] = biological target: SRSF protein kinase 2 (Homo sapiens) (UniProt P78362); test: activity of SRPK2(h) at 1.0 µM in the Eurofins Kinase panel; settings: Compound concentration 1.0 uM
[17] = biological target: Serine/threonine-protein kinase SIK1 (Homo sapiens) (UniProt P57059); test: activity of SIK(h) at 1.0 µM in the Eurofins Kinase panel; settings: Compound concentration 1.0 uM
[18] = biological target: PI3-kinase p110-alpha/p85-alpha (Homo sapiens) (UniProt P27986+P42336); test: activity of PI3 Kinase (p110alpha/p85alpha)(h) at 1.0 µM in the Eurofins Kinase panel; format: protein-complex assay; settings: Compound concentration 1.0 uM
[19] = biological target: Serine/threonine-protein kinase 4 (Homo sapiens) (UniProt Q13043); test: activity of MST1(h) at 1.0 µM in the Eurofins Kinase panel; settings: Compound concentration 1.0 uM
[20] = biological target: 5'-AMP-activated protein kinase catalytic subunit alpha-1 (Homo sapiens) (UniProt Q13131); test: activity of AMPKalpha1(h) at 1.0 µM in the Eurofins Kinase panel; settings: Compound concentration 1.0 uM
[21] = biological target: Tribbles homolog 2 (Homo sapiens) (UniProt Q92519); test: activity of TRB2(h) at 1.0 µM in the Eurofins Kinase panel; settings: Compound concentration 1.0 uM
[22] = biological target: Beta-adrenergic receptor kinase 1 (Homo sapiens) (UniProt P25098); test: activity of GRK2(h) at 1.0 µM in the Eurofins Kinase panel; settings: Compound concentration 1.0 uM
[23] = biological target: Serine/threonine-protein kinase WNK1 (Homo sapiens) (UniProt Q9H4A3); test: activity of WNK1(h) at 1.0 µM in the Eurofins Kinase panel; settings: Compound concentration 1.0 uM
[24] = biological target: Serine/threonine-protein kinase 3 (Homo sapiens) (UniProt Q13188); test: activity of MST2(h) at 1.0 µM in the Eurofins Kinase panel; settings: Compound concentration 1.0 uM
[25] = biological target: PI3K p110 beta/p85 alpha (Homo sapiens) (UniProt P27986+P42338); test: activity of PI3 Kinase (p110beta/p85alpha)(h) at 1.0 µM in the Eurofins Kinase panel; format: protein-complex assay; settings: Compound concentration 1.0 uM
[26] = biological target: Serine/threonine-protein kinase 25 (Homo sapiens) (UniProt O00506); test: activity of STK25(h) at 1.0 µM in the Eurofins Kinase panel; settings: Compound concentration 1.0 uM
[27] = biological target: RAC-alpha serine/threonine-protein kinase (Homo sapiens) (UniProt P31749); test: activity of PKBalpha(h) at 1.0 µM in the Eurofins Kinase panel; settings: Compound concentration 1.0 uM
[28] = biological target: CDK3/Cyclin E (Homo sapiens) (UniProt P24864+Q00526); test: activity of CDK3/cyclinE(h) at 1.0 µM in the Eurofins Kinase panel; format: protein-complex assay; settings: Compound concentration 1.0 uM
[29] = biological target: Mitogen-activated protein kinase kinase kinase 21 (Homo sapiens) (UniProt Q5TCX8); test: activity of MLK4(h) at 1.0 µM in the Eurofins Kinase panel; settings: Compound concentration 1.0 uM
[30] = biological target: Citron Rho-interacting kinase (Homo sapiens, UniProt O14578); test: NanoLuc NanoBRET (CITKD); settings: read-out: Kd
[31] = biological target: Serine/threonine-protein kinase ULK3 (Homo sapiens) (UniProt Q6PHR2); test: activity of ULK3(h) at 1.0 µM in the Eurofins Kinase panel; settings: Compound concentration 1.0 uM
[32] = biological target: Serine/threonine-protein kinase LATS2 (Homo sapiens) (UniProt Q9NRM7); test: activity of LATS2(h) at 1.0 µM in the Eurofins Kinase panel; settings: Compound concentration 1.0 uM
[33] = biological target: MAP kinase-interacting serine/threonine-protein kinase 2 (Homo sapiens, UniProt Q9HBH9); test: Promega NanoBRET (MKNK2)
[34] = biological target: Dual specificity protein kinase TTK (Homo sapiens) (UniProt P33981); test: activity of TTK(h) at 1.0 µM in the Eurofins Kinase panel; settings: Compound concentration 1.0 uM
[35] = biological target: Casein kinase II subunit alpha (Homo sapiens) (UniProt P68400); test: activity of CK2alpha1(h) at 1.0 µM in the Eurofins Kinase panel; settings: Compound concentration 1.0 uM
[36] = biological target: Serine/threonine-protein kinase N1 (Homo sapiens) (UniProt Q16512); test: activity of PRK1(h) at 1.0 µM in the Eurofins Kinase panel; settings: Compound concentration 1.0 uM
[37] = biological target: Aurora kinase A (Homo sapiens, UniProt O14965); test: Promega NanoBRET (AURKA)
[38] = biological target: Wee1-like protein kinase 2 (Homo sapiens) (UniProt P0C1S8); test: activity of Wee1B(h) at 1.0 µM in the Eurofins Kinase panel; settings: Compound concentration 1.0 uM
[39] = biological target: Angiopoietin-1 receptor (Homo sapiens) (UniProt Q02763); test: activity of Tie2(h) at 1.0 µM in the Eurofins Kinase panel; settings: Compound concentration 1.0 uM

Chain of Serine/threonine-protein kinase ULK3 (Homo sapiens) (Q6PHR2 whole entry): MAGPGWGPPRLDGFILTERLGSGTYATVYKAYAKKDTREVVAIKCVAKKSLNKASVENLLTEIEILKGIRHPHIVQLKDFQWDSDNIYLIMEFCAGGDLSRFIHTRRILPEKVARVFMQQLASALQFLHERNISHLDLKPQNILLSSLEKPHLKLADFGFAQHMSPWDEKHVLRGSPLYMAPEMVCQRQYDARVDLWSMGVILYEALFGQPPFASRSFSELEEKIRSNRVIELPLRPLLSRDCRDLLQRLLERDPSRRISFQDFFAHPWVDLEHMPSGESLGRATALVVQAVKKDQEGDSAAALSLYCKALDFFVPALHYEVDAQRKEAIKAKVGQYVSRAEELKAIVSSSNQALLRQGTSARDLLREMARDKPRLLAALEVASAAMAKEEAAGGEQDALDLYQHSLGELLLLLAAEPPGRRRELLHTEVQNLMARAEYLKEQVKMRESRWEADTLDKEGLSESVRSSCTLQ
Chain of Serine/threonine-protein kinase 25 (Homo sapiens) (O00506 whole entry, looked up): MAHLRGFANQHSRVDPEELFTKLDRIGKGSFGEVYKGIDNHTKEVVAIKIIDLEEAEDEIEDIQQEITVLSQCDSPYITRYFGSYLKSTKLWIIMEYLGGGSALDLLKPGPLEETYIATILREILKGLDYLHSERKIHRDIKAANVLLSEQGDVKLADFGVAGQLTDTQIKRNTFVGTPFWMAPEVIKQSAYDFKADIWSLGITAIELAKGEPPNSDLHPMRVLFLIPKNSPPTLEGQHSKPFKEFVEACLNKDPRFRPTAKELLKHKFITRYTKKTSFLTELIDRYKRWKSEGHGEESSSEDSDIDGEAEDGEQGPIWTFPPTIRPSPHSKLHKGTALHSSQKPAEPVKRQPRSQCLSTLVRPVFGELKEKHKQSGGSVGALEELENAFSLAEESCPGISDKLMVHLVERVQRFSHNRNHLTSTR
Chain of Cyclin-dependent kinase-like 3 (Homo sapiens) (Q8IVW4 whole entry, looked up): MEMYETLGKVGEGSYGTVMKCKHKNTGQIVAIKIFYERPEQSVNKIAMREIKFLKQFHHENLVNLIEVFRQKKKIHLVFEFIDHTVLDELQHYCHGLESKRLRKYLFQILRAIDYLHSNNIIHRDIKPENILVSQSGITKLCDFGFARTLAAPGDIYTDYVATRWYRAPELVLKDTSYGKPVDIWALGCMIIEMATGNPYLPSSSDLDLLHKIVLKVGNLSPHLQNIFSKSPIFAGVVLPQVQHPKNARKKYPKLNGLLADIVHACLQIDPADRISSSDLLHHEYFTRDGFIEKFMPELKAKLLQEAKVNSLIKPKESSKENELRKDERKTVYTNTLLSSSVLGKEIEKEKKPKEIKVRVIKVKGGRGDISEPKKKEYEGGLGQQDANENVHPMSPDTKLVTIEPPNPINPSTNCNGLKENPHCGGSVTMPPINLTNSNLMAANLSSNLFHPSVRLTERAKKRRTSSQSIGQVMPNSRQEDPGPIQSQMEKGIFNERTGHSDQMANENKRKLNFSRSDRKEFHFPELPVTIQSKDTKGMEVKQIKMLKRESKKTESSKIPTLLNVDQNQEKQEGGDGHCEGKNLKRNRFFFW
Chain of Serine/threonine-protein kinase N1 (Homo sapiens) (Q16512 2-942 limits assumed): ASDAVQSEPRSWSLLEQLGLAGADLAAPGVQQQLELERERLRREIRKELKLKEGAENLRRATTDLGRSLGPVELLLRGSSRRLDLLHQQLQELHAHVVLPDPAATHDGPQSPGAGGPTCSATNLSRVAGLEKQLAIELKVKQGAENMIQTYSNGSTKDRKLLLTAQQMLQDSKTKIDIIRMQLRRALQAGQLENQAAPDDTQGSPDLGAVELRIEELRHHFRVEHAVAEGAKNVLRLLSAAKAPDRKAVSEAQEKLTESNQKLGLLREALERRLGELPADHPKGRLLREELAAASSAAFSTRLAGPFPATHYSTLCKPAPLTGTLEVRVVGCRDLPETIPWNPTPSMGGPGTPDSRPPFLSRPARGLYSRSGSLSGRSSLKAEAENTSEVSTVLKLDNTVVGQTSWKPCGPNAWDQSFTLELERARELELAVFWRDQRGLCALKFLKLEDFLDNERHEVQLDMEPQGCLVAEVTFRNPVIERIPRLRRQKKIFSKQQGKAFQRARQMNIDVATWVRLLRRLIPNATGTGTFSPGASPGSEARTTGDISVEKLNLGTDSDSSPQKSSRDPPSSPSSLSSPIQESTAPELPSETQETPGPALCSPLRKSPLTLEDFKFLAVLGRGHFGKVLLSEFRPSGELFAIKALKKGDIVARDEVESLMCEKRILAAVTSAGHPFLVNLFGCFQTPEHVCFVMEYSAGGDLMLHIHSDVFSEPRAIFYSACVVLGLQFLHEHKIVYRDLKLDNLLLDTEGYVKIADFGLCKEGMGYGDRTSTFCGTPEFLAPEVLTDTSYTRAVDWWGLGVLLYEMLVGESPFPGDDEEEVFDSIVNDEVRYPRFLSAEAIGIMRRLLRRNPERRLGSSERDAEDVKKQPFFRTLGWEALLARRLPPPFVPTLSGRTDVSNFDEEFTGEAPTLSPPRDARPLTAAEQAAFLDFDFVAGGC
Chain of Casein kinase II subunit alpha (Homo sapiens) (P68400 whole entry, looked up): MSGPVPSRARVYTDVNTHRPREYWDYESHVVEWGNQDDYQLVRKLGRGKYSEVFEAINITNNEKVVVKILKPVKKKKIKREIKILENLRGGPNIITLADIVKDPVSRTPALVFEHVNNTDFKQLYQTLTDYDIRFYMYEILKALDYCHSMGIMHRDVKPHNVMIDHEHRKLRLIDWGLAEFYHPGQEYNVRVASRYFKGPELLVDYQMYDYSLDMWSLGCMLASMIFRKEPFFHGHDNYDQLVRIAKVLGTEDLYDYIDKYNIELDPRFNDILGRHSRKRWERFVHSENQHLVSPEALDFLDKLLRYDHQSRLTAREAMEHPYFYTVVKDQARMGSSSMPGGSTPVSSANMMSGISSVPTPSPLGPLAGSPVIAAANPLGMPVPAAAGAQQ
Chain of Serine/threonine-protein kinase 3 (Homo sapiens) (Q13188 whole entry): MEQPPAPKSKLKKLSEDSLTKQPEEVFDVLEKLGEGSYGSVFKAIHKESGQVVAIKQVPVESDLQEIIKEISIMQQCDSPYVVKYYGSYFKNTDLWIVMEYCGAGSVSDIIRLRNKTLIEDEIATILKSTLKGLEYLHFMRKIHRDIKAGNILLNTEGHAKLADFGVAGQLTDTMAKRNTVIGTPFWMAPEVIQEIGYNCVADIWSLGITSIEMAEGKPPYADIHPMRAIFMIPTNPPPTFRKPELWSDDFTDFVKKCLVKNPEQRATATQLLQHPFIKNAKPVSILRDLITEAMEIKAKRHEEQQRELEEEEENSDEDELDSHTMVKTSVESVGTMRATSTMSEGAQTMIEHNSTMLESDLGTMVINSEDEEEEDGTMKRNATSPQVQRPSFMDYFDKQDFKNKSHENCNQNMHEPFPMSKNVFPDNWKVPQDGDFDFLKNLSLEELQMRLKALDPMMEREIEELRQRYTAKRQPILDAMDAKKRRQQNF
Chain of Tribbles homolog 2 (Homo sapiens) (Q92519 whole entry): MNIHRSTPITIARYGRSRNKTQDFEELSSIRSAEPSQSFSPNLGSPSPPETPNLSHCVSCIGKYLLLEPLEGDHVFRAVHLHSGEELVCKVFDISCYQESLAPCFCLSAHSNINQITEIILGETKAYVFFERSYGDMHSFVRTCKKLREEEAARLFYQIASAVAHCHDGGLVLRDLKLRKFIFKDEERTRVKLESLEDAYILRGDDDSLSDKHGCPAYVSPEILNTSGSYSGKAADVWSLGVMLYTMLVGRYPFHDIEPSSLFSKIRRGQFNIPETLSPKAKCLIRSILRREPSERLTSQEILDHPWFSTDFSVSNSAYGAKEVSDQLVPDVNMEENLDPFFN
Chain of Serine/threonine-protein kinase DCLK3 (Homo sapiens) (Q9C098 whole entry): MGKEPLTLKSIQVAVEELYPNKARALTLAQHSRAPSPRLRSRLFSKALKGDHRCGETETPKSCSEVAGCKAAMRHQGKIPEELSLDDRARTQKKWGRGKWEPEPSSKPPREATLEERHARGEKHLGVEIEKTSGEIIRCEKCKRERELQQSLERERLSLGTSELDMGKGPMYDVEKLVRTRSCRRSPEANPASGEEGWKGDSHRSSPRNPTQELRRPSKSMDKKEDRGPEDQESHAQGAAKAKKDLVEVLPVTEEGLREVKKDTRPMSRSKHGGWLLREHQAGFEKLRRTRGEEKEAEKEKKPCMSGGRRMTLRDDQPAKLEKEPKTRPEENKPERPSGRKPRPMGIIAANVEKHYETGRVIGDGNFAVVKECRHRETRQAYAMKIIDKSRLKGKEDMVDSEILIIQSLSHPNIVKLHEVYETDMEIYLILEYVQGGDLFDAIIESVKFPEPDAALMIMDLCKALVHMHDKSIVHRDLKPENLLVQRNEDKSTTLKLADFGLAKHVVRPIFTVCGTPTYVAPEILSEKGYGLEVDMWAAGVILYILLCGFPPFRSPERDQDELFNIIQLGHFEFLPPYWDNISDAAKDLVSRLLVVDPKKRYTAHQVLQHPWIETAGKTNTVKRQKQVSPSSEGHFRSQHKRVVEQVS
Chain of Cyclin-dependent kinase 5/CDK5 activator 1 (Homo sapiens) (Q00535 whole entry): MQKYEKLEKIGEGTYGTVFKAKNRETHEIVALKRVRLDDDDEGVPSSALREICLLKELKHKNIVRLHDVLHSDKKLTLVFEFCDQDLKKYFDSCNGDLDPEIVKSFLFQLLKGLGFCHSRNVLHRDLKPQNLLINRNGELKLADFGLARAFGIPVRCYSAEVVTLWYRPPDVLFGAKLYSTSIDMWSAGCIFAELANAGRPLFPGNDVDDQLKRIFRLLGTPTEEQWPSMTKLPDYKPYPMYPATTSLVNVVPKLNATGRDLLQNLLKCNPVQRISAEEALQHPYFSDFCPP
Chain of Cyclin-dependent kinase 5/CDK5 activator 1 (Homo sapiens) (Q15078 99-307 partner limits assumed): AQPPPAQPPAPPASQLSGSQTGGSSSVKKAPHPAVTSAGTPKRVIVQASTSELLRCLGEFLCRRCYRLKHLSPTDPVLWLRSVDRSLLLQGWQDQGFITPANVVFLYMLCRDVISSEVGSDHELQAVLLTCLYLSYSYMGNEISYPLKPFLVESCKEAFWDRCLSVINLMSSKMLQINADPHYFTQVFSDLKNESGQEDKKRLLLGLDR

activity [1]: 79%
activity [2]: 97%
activity [3]: 81%
activity [4]: 97%
activity [5]: 103%
activity [6]: 104%
activity [7]: 98%
activity [8]: 72%
activity [9]: 107%
activity [10]: 86%
activity [11]: 104%
activity [12]: 72%
activity [13]: 83%
activity [14]: 103%
activity [15]: 100%
activity [16]: 93%
activity [17]: 105%
activity [18]: 96%
activity [19]: 76%
activity [20]: 120%
activity [21]: 104%
activity [22]: 95%
activity [23]: 109%
activity [24]: 106%
activity [25]: 102%
activity [26]: 92%
activity [27]: 87%
activity [28]: 102%
activity [29]: 112%
Kd [30]: 0.0003 µM (active)
activity [31]: 95%
activity [32]: 102%
IC50 [33]: 5.5 µM (not active)
activity [34]: 102%
activity [35]: 112%
activity [36]: 91%
IC50 [37]: > 10 µM (not active)
activity [38]: 88%
activity [39]: 99%
Compound: Cc1cc2c(-c3ccc(NC(=O)[C@H](N)CC(C)(C)C)cc3C)ccnc2[nH]1

From ChEMBL document CHEMBL5723584 (2023)
